Source: patent US10532995B2, “Substituted pyrazole compounds as serine protease inhibitors” (VERSEON CORPORATION, priority 2015, dated 2020)
Counter-ions that a name gives are not always drawn.

Target: T1, Human thrombin (Homo sapiens, UniProt P00734)
T1 construct: purchased Haematologic Technologies Inc
Experiment: Thrombin protease activity inhibition, chromogenic substrate S-2238
Assay type: biochemical
Details: 3 nM thrombin, 125 μM S-2238, 10 min pre-incubation, RT
Description: The thrombin activity reported herein (e.g., Table A) was obtained as follows. […] Thrombin was assayed in buffer containing 0.05 M Tris (pH 7.4), 0.015 M NaCl and 0.01% PEG-8000. The final concentration of enzyme used was 3 nM thrombin. […] All assays were performed in 96-well microtiter plates at room temperature (RT). […] Inhibitor IC50 values were determined by adding test compound as ten point, three-fold serial dilutions in buffer solution, as known in the art. The plate was read at 10 minutes after substrate addition. The IC50 was calculated by plotting the percent (%) inhibition against compound concentration and fitting the data to a constrained four parameter sigmoidal curve, as known in the art.

| SMILES | IC50 [µM] |
| --- | --- |
| CS(=O)(=O)N1C2CCC1CC(c1cc(NCc3ccc(Cl)s3)[nH]n1)C2 (stereo not shown) [Entry 226, N-[(5-chlorothiophen-2-yl)methyl]-3-8-methanesulfonyl-8-azabicyclo[3.2.1]octan-3-yl-1H-pyrazol-5-amine] | > 100 |
| Cc1c(C2CCN(C(=O)N3CCOCC3)CC2)n[nH]c1NCc1ccc(Cl)s1 [Entry 237, N-[(5-chlorothiophen-2-yl)methyl]-4-methyl-3-[1-(morpholine-4-carbonyl)piperidin-4-yl]-1H-pyrazol-5-amine] | 10 to 100 |
| O=C(O)CN1CCC(c2cc(NCc3ccc(Cl)s3)[nH]n2)CC1 [Entry 112, 2-[4-(5-[(5-chlorothiophen-2-yl)methyl]amino-1H-pyrazol-3-yl)piperidin-1-yl]acetic acid] | > 100 |
| O=C(N1CCOCC1)N1CCC(c2cc(NCc3ccc(Cl)s3)n(C(=O)N3CCOCC3)n2)CC1 [Entry 168, N-[(5-chlorothiophen-2-yl)methyl]-1-(morpholine-4-carbonyl)-3-[1-(morpholine-4-carbonyl)piperidin-4-yl]-1H-pyrazol-5-amine] | 1 to 10 |
| Clc1ccc(CNc2cc(C3CCN(Cc4ccccn4)CC3)n[nH]2)s1 [Entry 210, N-[(5-chlorothiophen-2-yl)methyl]-3-[1-(pyridin-2-ylmethyl)piperidin-4-yl]-1H-pyrazol-5-amine] | 1 to 10 |
| Clc1ccc(CNc2cc(C3CCN(CCN4CCOCC4)CC3)n[nH]2)s1 [Entry 223, N-[(5-chlorothiophen-2-yl)methyl]-3-1-[2-(morpholin-4-yl)ethyl]piperidin-4-yl-1H-pyrazol-5-amine] | 1 to 10 |
| CC1CCCC(C)C1C(=O)n1nc(C2CCNCC2)cc1NCc1ccc(Cl)s1 (stereo not shown) [Entry 151, N-[(5-chlorothiophen-2-yl)methyl]-1-(2,6-dimethylcyclohexanecarbonyl)-3-(piperidin-4-yl)-1H-pyrazol-5-amine hydrochloride] | 1 to 10 |
| O=C(C1CCCCC1)n1nc(C2CCNCC2)cc1NCc1ccc(Cl)s1 [Entry 169, N-[(5-chlorothiophen-2-yl)methyl]-1-cyclohexanecarbonyl-3-(piperidin-4-yl)-1H-pyrazol-5-amine hydrochloride] | > 100 |
| O=C(CN1CCOCC1)N1CCCC1c1cc(NCc2ccc(Cl)s2)[nH]n1 (stereo not shown) [Entry 93, 1-[2-(5-[(5-chlorothiophen-2-yl)methyl]amino-1H-pyrazol-3-yl)pyrrolidin-1-yl]-2-(morpholin-4-yl)ethan-1-one] | > 100 |
| COc1ccccc1C(=O)n1nc(C2(C)CCCNC2=O)cc1NCc1ccc(Cl)s1 (stereo not shown) [Entry 117, 3-(5-[(5-chlorothiophen-2-yl)methyl]amino-1-(2-methoxybenzoyl)-1H-pyrazol-3-yl)-3-methylpiperidin-2-one] | 0.1 to 1 |
| CC(C)(C)C(=O)N1CC(c2cc(NCc3ccc(Cl)s3)[nH]n2)C1 [Entry 97, 1-[3-(5-[(5-chlorothiophen-2-yl)methyl]amino-1H-pyrazol-3-yl)azetidin-1-yl]-2,2-dimethylpropan-1-one] | > 100 |
| O=C(N1CCOCC1)N1CCC(c2cc(NCc3ccc(Cl)s3)[nH]n2)C1 (stereo not shown) [Entry 206, N-[(5-chlorothiophen-2-yl)methyl]-3-[1-(morpholine-4-carbonyl)pyrrolidin-3-yl]-1H-pyrazol-5-amine] | > 100 |
| Clc1ccc(CNc2cc(C3CC4CCC(C3)N4)n[nH]2)s1 (stereo not shown) [Entry 131, 3-8-azabicyclo[3.2.1]octan-3-yl-N-[(5-chlorothiophen-2-yl)methyl]-1H-pyrazol-5-amine] | > 100 |
| O=C(N1CCC(c2n[nH]c(NCc3ccc(Cl)s3)c2F)CC1)C1(O)CC1 [Entry 104, 1-[4-(5-[(5-chlorothiophen-2-yl)methyl]amino-4-fluoro-1H-pyrazol-3-yl)piperidine-1-carbonyl]cyclopropan-1-ol] | 10 to 100 |

Other lines, results leading:

| IC50 [µM] | SMILES |
| --- | --- |
| < 0.1 | C=CCOC(=O)N1CC(c2cc(NCc3ccc(Cl)s3)n(C(=O)C(C)(C)C)n2)C1 [Entry 255, prop-2-en-1-yl 3-(5-[(5-chlorothiophen-2-yl)methyl]amino-1-(2,2-dimethylpropanoyl)-1H-pyrazol-3-yl)azetidine-1-carboxylate] |
| < 0.1 | CC(C)(C)OC(=O)N1CCC(c2cc(NCc3ccc(Cl)s3)n(C(=O)C(C)(C)C)n2)CC1 [Entry 292, tert-butyl 4-(5-[(5-chlorothiophen-2-yl)methyl]amino-1-(2,2-dimethylpropanoyl)-1H-pyrazol-3-yl)piperidine-1-carboxylate] |
| < 0.1 | CC(C)(C)OC(=O)N1CCC(C)(c2cc(NCc3ccc(Cl)s3)n(C(=O)C(C)(C)CO)n2)CC1 [Entry 296, tert-butyl 4-(5-[(5-chlorothiophen-2-yl)methyl]amino-1-(3-hydroxy-2,2-dimethylpropanoyl)-1H-pyrazol-3-yl)-4-methylpiperidine-1-carboxylate] |
| > 100 | CS(=O)(=O)N1CC(c2cc(NCc3ccc(Cl)s3)[nH]n2)C1 [Entry 172, N-[(5-chlorothiophen-2-yl)methyl]-3-(1-methanesulfonylazetidin-3-yl)-1H-pyrazol-5-amine] |
| > 100 | C=CCOC(=O)N1CCN(S(=O)(=O)N2CCOCC2)CC1c1cc(NCc2ccc(Cl)s2)[nH]n1 (stereo not shown) [Entry 250, prop-2-en-1-yl 2-(5-[(5-chlorothiophen-2-yl)methyl]amino-1H-pyrazol-3-yl)-4-(morpholine-4-sulfonyl)piperazine-1-carboxylate] |
| < 0.1 | C=CCOC(=O)N1CCCC(c2cc(NCc3ccc(Cl)s3)n(C(=O)c3cscn3)n2)CC1 (stereo not shown) [Entry 260, prop-2-en-1-yl 4-(5-[(5-chlorothiophen-2-yl)methyl]amino-1-(1,3-thiazole-4-carbonyl)-1H-pyrazol-3-yl)azepane-1-carboxylate] |
| > 100 | C=CCOC(=O)N1CCN(C(=O)CN2CCOCC2)CC1c1cc(NCc2ccc(Cl)s2)[nH]n1 (stereo not shown) [Entry 251, prop-2-en-1-yl 2-(5-[(5-chlorothiophen-2-yl)methyl]amino-1H-pyrazol-3-yl)-4-[2-(morpholin-4-yl)acetyl]piperazine-1-carboxylate] |
| < 0.1 | CC(C)(C)OC(=O)N1CCC(C)(c2cc(NCc3ccc(Cl)s3)n(C(=O)c3ccsc3)n2)CC1 [Entry 300, tert-butyl 4-(5-[(5-chlorothiophen-2-yl)methyl]amino-1-(thiophene-3-carbonyl)-1H-pyrazol-3-yl)-4-methylpiperidine-1-carboxylate] |
| > 100 | C=CCOC(=O)N1CCN(S(C)(=O)=O)CC1c1cc(NCc2ccc(Cl)s2)[nH]n1 (stereo not shown) [Entry 252, prop-2-en-1-yl 2-(5-[(5-chlorothiophen-2-yl)methyl]amino-1H-pyrazol-3-yl)-4-methanesulfonylpiperazine-1-carboxylate] |
| 1 to 10 | COc1ccccc1C(=O)n1nc(C2(C)CCCN2C(=O)OC(C)(C)C)cc1NCc1ccc(Cl)s1 (stereo not shown) [Entry 272, tert-butyl 2-(5-[(5-chlorothiophen-2-yl)methyl]amino-1-(2-methoxybenzoyl)-1H-pyrazol-3-yl)-2-methylpyrrolidine-1-carboxylate] |
| 0.1 to 1 | C=CCOC(=O)N1CCN(S(C)(=O)=O)CC1c1cc(NCc2ccc(Cl)s2)n(C(=O)c2cscn2)n1 (stereo not shown) [Entry 242, prop-2-en-1-yl 2-(5-[(5-chlorothiophen-2-yl)methyl]amino-1-(1,3-thiazole-4-carbonyl)-1H-pyrazol-3-yl)-4-methanesulfonylpiperazine-1-carboxylate] |
